The numbers were not newly measured in US6365128B1, “Monitoring gastrointestinal function to guide care of high risk patients” (Medical Defence Technologies, LLC, priority 1998, dated 2002), which cites them from elsewhere.

For the series the following is noted: in vivo.

With `CSCC[C@H](NC(=O)[C@H](Cc1c[nH]c2ccccc12)NC(=O)CCNC(=O)OC(C)(C)C)C(=O)N[C@@H](CC(=O)O)C(=O)N[C@@H](Cc1ccccc1)C(N)=O` [Pentagastrin, pentagastrin], the half life entry is recorded as “approximately 10 minutes”.
